We go through 24 compounds from patent US8008488B2 (Abbott GmbH & Co. KG, priority 2003, dated 2011).

Each structure is given as a SMILES string. Structures can show the parent of a compound that is named as a salt.

For assay [1], the target named is T1, human dopamine D3 receptors (Homo sapiens, UniProt P35462).
T1 construct: expressed in transfected cells
Nature of the assay: Dopamine D3 receptor binding, displacement of [125I]-iodosulpride. To be noted: membranes from HEK-293 cells with stably expressed human D3 receptors, 0.1 nM [125I]-iodosulpride. As to the method: (§1) The substance to be tested was dissolved either in methanol/Chremophor® (BASF-AG) or in dimethyl sulfoxide and then diluted with water to the desired concentration.
(§2) Triplicate mixtures were carried out.
The incubation buffer contained 50 mM Tris, 120 mM NaCl, 5 mM KCl, 2 mM CaCl2, 2 mM MgCl2 and 0.1% bovine serum albumin, 10 μM quinolone, 0.1% ascorbic acid (prepared fresh each day). The buffer was adjusted to pH 7.4 with HCl.
(§3) Measurement and Evaluation:
(§4) After incubation at 25° C. for 60 minutes, the mixtures were filtered under vacuum through Whatman GF/B glass fiber filters using a cell harvester. The filters were transferred by a filter transfer system into scintillation vials. After addition of 4 ml of Ultima Gold® (Packard), the samples were shaken for one hour and then the radioactivity was calculated in a beta counter (Packard, Tricarb 2000 or 2200CA). The cp values were converted into dpm by means of a standard quench series with the aid of the instrument's own program.
(§5) Evaluation of the inhibition plots took place by iterative nonlinear regression analysis using the Statistical Analysis System (SAS) similar to the “LIGAND” program described by Munson and Rodbard.

For assay [2], the target named is T2, human dopamine D2L receptors (long isoform) (Homo sapiens, UniProt P14416).
T2 construct: expressed in transfected cells
Nature of the assay: Dopamine D2L receptor binding, displacement of [125I]-iodospiperone. As to conditions: *Ki(D2L)/Ki(D3), HEK-293 membranes, 0.01 nM [125I]-iodospiperone. As to the method:
as §1, §2
The incubation buffer contained 50 mM Tris, 120 mM NaCl, 5 mM KCl, 2 mM CaCl2, 2 mM MgCl2 and 0.1% bovine serum albumin. The buffer was adjusted to pH 7.4 with HCl.
as §3, §4, §5

T1 sequence (P35462 whole entry): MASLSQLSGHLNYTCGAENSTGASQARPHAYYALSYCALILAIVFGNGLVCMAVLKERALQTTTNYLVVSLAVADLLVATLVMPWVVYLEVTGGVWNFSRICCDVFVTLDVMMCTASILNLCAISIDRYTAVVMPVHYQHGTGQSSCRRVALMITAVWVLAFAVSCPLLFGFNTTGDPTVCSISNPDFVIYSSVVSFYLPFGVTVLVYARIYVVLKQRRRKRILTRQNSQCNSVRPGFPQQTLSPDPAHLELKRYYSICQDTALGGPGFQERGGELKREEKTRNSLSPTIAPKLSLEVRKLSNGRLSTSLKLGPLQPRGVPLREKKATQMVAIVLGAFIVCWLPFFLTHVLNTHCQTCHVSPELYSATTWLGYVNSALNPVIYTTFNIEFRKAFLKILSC
T2 sequence (P14416 whole entry, canonical isoform): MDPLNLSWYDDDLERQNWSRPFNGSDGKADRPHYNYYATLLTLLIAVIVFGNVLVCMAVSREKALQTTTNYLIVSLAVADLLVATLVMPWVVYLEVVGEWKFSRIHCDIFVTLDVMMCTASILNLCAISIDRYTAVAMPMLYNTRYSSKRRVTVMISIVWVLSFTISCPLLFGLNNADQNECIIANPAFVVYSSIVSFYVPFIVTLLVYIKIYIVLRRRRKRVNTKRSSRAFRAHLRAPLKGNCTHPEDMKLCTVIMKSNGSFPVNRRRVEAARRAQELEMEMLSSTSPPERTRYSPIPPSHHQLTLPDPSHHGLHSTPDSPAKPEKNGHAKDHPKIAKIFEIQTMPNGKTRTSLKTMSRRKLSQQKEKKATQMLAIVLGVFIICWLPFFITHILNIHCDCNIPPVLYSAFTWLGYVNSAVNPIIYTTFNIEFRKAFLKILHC

Consider `CCCc1cc(N2CCN(C(C)CCCn3cc(C)c(=O)[nH]c3=O)CC2)nc(C(C)(C)C)n1` (single isomer, unassigned; (-)) [Example 76, (−)-1-{4-[4-(2-tert-Butyl-6-propylpyrimidin-4-yl)piperazin-1-yl]pentyl}-5-methyl-1H-pyrimidine-2,4-dione], for which the Ki in assay [1] came out at 3.03 nM. Also, the “Selectivity D3 vs. D2L*” value in assay [2] was 103.

In assay [1], `Cc1cccc(N2CCN(CCCCn3cc(C)c(=O)[nH]c3=O)CC2)c1C` [Example 128, 1-{4-[4-(2,3-Dimethylphenyl)piperazin-1-yl]butyl}-5-methyl-1H-pyrimidine-2,4-dione] had a Ki of 2.4 nM. Also, the “Selectivity D3 vs. D2L*” value in assay [2] came to 55.

On to `Cc1cn(CCCCN2CCN(c3cc(C(F)(F)F)cc(C(F)(F)F)c3)CC2)c(=O)[nH]c1=O` [Example 125, 1-{4-[4-(3,5-Bis-trifluoromethylphenyl)piperazin-1-yl]butyl}-5-methyl-1H-pyrimidine-2,4-dione], for which the Ki in assay [1] was 6.8 nM. Also, in assay [2], the “Selectivity D3 vs. D2L*” value stood at 63.

`CC(=O)O.CCCc1cc(N2CCN(CCCCn3cc(Cl)c(=O)[nH]c3=O)CC2)nc(C(C)(C)C)n1` [Example 77, 4-(2-tert-Butyl-6-propylpyrimidin-4-yl)-1-[4-(5-chloro-2,4-dioxo-3,4-dihydro-2H-pyrimidin-1-yl)butyl]piperazin-1-ium acetate] displayed a Ki in assay [1] of 0.74 nM. Also, the “Selectivity D3 vs. D2L*” value in assay [2] is on record as 150.

In assay [1], `CCCc1cc(N2CCN(CCCCn3cc(F)c(=O)[nH]c3=O)CC2)nc(C(C)(C)C)n1` [Example 53, 1-{4-[4-(2-tert-Butyl-6-propylpyrimidin-4-yl)piperazin-1-yl]butyl}-5-fluoro-1H-pyrimidine-2,4-dione] returned a Ki of 2.32 nM. For the same compound, the “Selectivity D3 vs. D2L*” value in assay [2] turned out to be 56.

The compound `CC(C)(C)c1nc(N2CCN(CCCCn3cc(Cl)c(=O)[nH]c3=O)CC2)cc(C(F)(F)F)n1` [Example 52, 1-{4-[4-(2-tert-Butyl-6-trifluoromethylpyrimidin-4-yl)piperazin-1-yl]butyl}-5-chloro-1H-pyrimidine-2,4-dione] registered a Ki in assay [1] of 2.28 nM. In assay [2], the “Selectivity D3 vs. D2L*” value was 97.

In assay [1], `Cc1cc(N2CCN(CCCCn3cc(C)c(O)nc3=O)CC2)nc(C(C)(C)C)n1` [Example 29, 1-{4-[4-(2-tert-Butyl-6-methylpyrimidin-4-yl)piperazin-1-yl]butyl}-4-hydroxy-5-methylpyrimidin-2(1H)-one] registered a Ki of 7.64 nM. Besides, the “Selectivity D3 vs. D2L*” value in assay [2] was 67.

`Cc1cn(CCCCN2CCN(c3cc(C(F)(F)F)nc(C(C)(C)C)n3)CC2)c(=O)nc1O.Cl` [Example 5, 1-[2-tert-Butyl-6-(trifluoromethyl)pyrimidin-4-yl]-4-[4-(4-hydroxy-5-methyl-2-oxopyrimidin-1 (2H)-yl)butyl]piperazin-4-ium chloride]: in assay [1], the Ki stood at 1.3 nM. The “Selectivity D3 vs. D2L*” value in assay [2] is given as 246.

Consider `C/C(=C\CN1CCN(c2cc(C(F)(F)F)nc(C(C)(C)C)n2)CC1)Cn1cc(C)c(=O)[nH]c1=O` [Example 36, 1-((2E)-4-{4-[2-tert-Butyl-6-(trifluoromethyl)pyrimidin-4-yl]piperazin-1-yl}-2-methylbut-2-en-1-yl)-5-methylpyrimidine-2,4(1H,3H)-dione], for which, in assay [1], the Ki turned out to be 3.82 nM. For the same compound, the “Selectivity D3 vs. D2L*” value in assay [2] turned out to be 209.

For `CC(C)(C)c1ccn(CCCCN2CCN(c3cc(C(F)(F)F)nc(C(C)(C)C)n3)CC2)c(=O)n1` [Example 14, 4-tert-Butyl-1-(4-{4-[2-tert-butyl-6-(trifluoromethyl)pyrimidin-4-yl]piperazin-1-yl}butyl)pyrimidin-2(1H)-one], the Ki in assay [1] came out at 2.62 nM. In assay [2], the “Selectivity D3 vs. D2L*” value was found to be 82.

The compound `Cc1cn(CCCCN2CCN(c3cc(C(F)(F)F)nc(C(C)(C)C)n3)CC2)c(=O)nc1S` [Example 2, 1-(4-{4-[2-tert-Butyl-6-(trifluoromethyl)pyrimidin-4-yl]piperazin-1-yl}butyl)-4-mercapto-5-methylpyrimidin-2(1H)-one] registered a Ki in assay [1] of 3.23 nM. In assay [2], the “Selectivity D3 vs. D2L*” value is reported as 88.

As for `CCCc1cc(N2CCN(CCCCn3ccc(C(C)(C)C)nc3=O)CC2)nc(C(C)(C)C)n1.Cl` [Example 21, 1-[4-(4-tert-Butyl-2-oxopyrimidin-1 (2H)-yl)butyl]-4-(2-tert-butyl-6-propylpyrimidin-4-yl)piperazin-1-ium chloride], the Ki in assay [1] turned out to be 1.94 nM. For the same compound, in assay [2], the “Selectivity D3 vs. D2L*” value was 96.

In assay [1], `CCCc1cc(N2CCN(CCC(C)Cn3cc(C)c(=O)[nH]c3=O)CC2)nc(C(C)(C)C)n1` (stereo not drawn) [Example 70, 1-{4-[4-(2-tert-Butyl-6-propylpyrimidin-4-yl)piperazin-1-yl]-2-methylbutyl}-5-methyl-1H-pyrimidine-2,4-dione] registered a Ki of 10 nM. The “Selectivity D3 vs. D2L*” value in assay [2] came to 30.

`CCCc1cc(N2CCN(CCCCn3ccc(-c4ccccc4C)nc3=O)CC2)nc(C(C)(C)C)n1` [Example 57, 4-(2-tert-Butyl-6-propylpyrimidin-4-yl)-1-[4-(2-oxo-4-(o-tolyl)-2H-pyrimidin-1-yl)butyl]-piperazin-1-ium fumarate] showed a Ki in assay [1] of 0.96 nM. The “Selectivity D3 vs. D2L*” value in assay [2] stood at 111.

As to `CC(C)(C)c1nc(N2CCN(CCCCn3ccc(-c4cccc(F)c4)nc3=O)CC2)cc(C(F)(F)F)n1` [Example 73, 4-(2-tert-Butyl-6-trifluoromethylpyrimidin-4-yl)-1-{4-[4-(3-fluorophenyl)-2-oxo-2H-pyrimidin-1-yl]butyl}piperazin-1-ium fumarate], the affinity in assay [1] corresponds to a Ki of 9.3 nM. In assay [2], the “Selectivity D3 vs. D2L*” value is 31.

`CCCc1cc(N2CCN(CCCCn3ccc(C)nc3=O)CC2)nc(C(C)(C)C)n1.Cl` [Example 35, 4-(2-tert-Butyl-6-propylpyrimidin-4-yl)-1-[4-(4-methyl-2-oxopyrimidin-1 (2H)-yl)butyl]piperazin-1-ium chloride]: the Ki in assay [1] was found to be 4.96 nM. Further, in assay [2], the “Selectivity D3 vs. D2L*” value was found to be 116.

As for `CCCc1cc(N2CCN(CCCCn3cc(CC)c(=O)[nH]c3=O)CC2)nc(C(C)(C)C)n1` [Example 84, 4-(2-tert-Butyl-6-propylpyrimidin-4-yl)-1-[4-(5-ethyl-2,4-dioxo-3,4-dihydro-2H-pyrimidin-1-yl)butyl]piperazin-1-ium fumarate], in assay [1], the Ki was 0.75 nM. Besides, the “Selectivity D3 vs. D2L*” value in assay [2] is 63.

`Cc1cn(CCCC(C)N2CCN(c3cc(C(F)(F)F)nc(C(C)(C)C)n3)CC2)c(=O)[nH]c1=O` (stereo not drawn) [Example 54, 1-{4-[4-(2-tert-Butyl-6-trifluoromethylpyrimidin-4-yl)piperazin-1-yl]pentyl}-5-methyl-1H-pyrimidine-2,4-dione] showed a Ki in assay [1] of 9.25 nM. In addition, the “Selectivity D3 vs. D2L*” value in assay [2] is given as 52.

In assay [1], `Cc1cn(CCCCN2CCN(c3cc(C4CC4)nc(C(C)(C)C)n3)CC2)c(=O)nc1O` [Example 17, 1-{4-[4-(2-tert-Butyl-6-cyclopropylpyrimidin-4-yl)piperazin-1-yl]butyl}-4-hydroxy-5-methylpyrimidin-2(1H)-one] came in with a Ki of 0.71 nM. The “Selectivity D3 vs. D2L*” value in assay [2] was found to be 134.

In assay [1], `CCCc1cc(N2CCN(C(C)CCCn3cc(C)c(=O)[nH]c3=O)CC2)nc(C(C)(C)C)n1.Cl` (stereo not drawn) [Example 38, 4-(2-tert-Butyl-6-propylpyrimidin-4-yl)-1-[1-methyl-4-(5-methyl-2,4-dioxo-3,4-dihydropyrimidin-1 (2H)-yl)butyl]piperazin-1-ium chloride] showed a Ki of 5.33 nM. Also, the “Selectivity D3 vs. D2L*” value in assay [2] stood at 103.

In assay [1], `CC(C)(C)c1nc(N2CCN(CCCCn3cc(F)c(=O)[nH]c3=O)CC2)cc(C(F)(F)F)n1.Cl` [Example 16, 1-[2-tert-Butyl-6-(trifluoromethyl)pyrimidin-4-yl]-4-[4-(5-fluoro-2,4-dioxo-3,4-dihydro-pyrimidin-1 (2H)-yl)butyl]piperazin-4-ium chloride] registered a Ki of 2.99 nM. Besides, the “Selectivity D3 vs. D2L*” value in assay [2] was 201.

In the case of `CCCc1cc(N2CCN(CCCCn3ccc(-c4ccc(F)cc4)nc3=O)CC2)nc(C(C)(C)C)n1` [Example 44, 1-{4-[4-(2-tert-Butyl-6-propylpyrimidin-4-yl)piperazin-1-yl]butyl}-4-(4-fluorophenyl)-1H-pyrimidin-2-one], the affinity in assay [1] corresponds to a Ki of 0.63 nM. The “Selectivity D3 vs. D2L*” value in assay [2] came out at 158.

With `CCCc1cc(N2CCN(CCCCn3ccc(-c4cccc(C)c4)nc3=O)CC2)nc(C(C)(C)C)n1` [Example 59, 1-{4-[4-(2-tert-Butyl-6-propylpyrimidin-4-yl)piperazin-1-yl]butyl}-4-(m-tolyl)-1H-pyrimidin-2-one], in assay [1], the Ki is 1.8 nM. In addition, the “Selectivity D3 vs. D2L*” value in assay [2] is reported as 44.

With `CCc1cn(CCCCN2CCN(c3cc(C(F)(F)F)nc(C(C)(C)C)n3)CC2)c(=O)[nH]c1=O` [Example 83, 4-(2-tert-Butyl-6-trifluoromethylpyrimidin-4-yl)-1-[4-(5-ethyl-2,4-dioxo-3,4-dihydro-2H-pyrimidin-1-yl)butyl]piperazine 1-fumarate], in assay [1], the affinity, expressed as Ki, was 1.66 nM. Further, in assay [2], the “Selectivity D3 vs. D2L*” value is 89.
